Results published in patent publication US8481678B2, “Peptide-based tooth whitening reagents” (E I du Pont de Nemours and Company, priority 2009, dated 2013).
Where no end group is shown, it is not given here. The star is where a group is joined. Biotin = O=C1N[C@H]2[C@H](CS[C@H]2CCCCC(=O)*)N1

test system: pellicle-coated enamel substrates; test: not given; settings: 20 μM synthetic biotinylated peptide, 30 min at 37° C.; normalized to DenP03; three replicates; no peptide −0.001
Description: A total of 20 synthetic peptides were manufactured using sequences obtained from Table 14. Peptides were obtained from Synbiosci (Livermore, Calif.) and included an additional SSRP sequence (SEQ ID NO: 151) at the N-terminus and biotin labeled lysine at the C-terminus.
Enamel substrates were cut to approx. 7 mm squares and mounted on wax mounting for incubation in the mouth for 30 min to form a pellicle coated surface. The pellicle-coated enamel substrates were removed from the wax backing and placed in well plates with the pellicle surface exposed as in Example 1. Each pellicle-coated substrate was incubated for 1 h at room temperature (˜22° C.) with 1 mL of blocking buffer, consisting of 1 mg/mL BSA in PBST (Pierce BupH™ #28372 with 0.1% TWEEN® 20). The blocking buffer was removed by aspirating the liquid out of each well. The tube was rinsed 2 times with wash buffer consisting of PBST. The wells were filled with 500 μL of 20 μM peptide solution which was prepared by diluting in blocking buffer. The samples were incubated for 30 min with slow shaking at 37° C. The non-binding peptide was removed by washing 6 times with PBST. Then, 500 μL of horseradish peroxidase/streptavidin conjugate (Pierce #22127), diluted 1:2000 in PBST, was added and incubated for 1 h at room temperature. The conjugate solution was removed and was washed 4 times with PBST.
Each enamel substrate was removed from the well and washed again in a 15-mL test tube with 10 mL of PBST. Each enamel substrate was then mounted in a clean well plate with only the enamel surface exposed. A 1:1 solution of TMB substrate and H2O2 (200 μL), obtained from Pierce Biotechnology (Rockford, Ill.) was added to each well and the color was allowed to develop for between 10 to 20 min, typically for 15 min, at room temperature (˜22° C.). Then, 100 μL of solution from each well was transferred to a 96-well reading plate containing stop solution (100 μL of 2 M H2SO4) in each well. The A450 was measured using a microplate spectrophotometer (Molecular Devices, Sunnyvale, Calif.). […] Each sequence was tested with three replicate enamel coated pellicle substrates.

Substance	O.D. at 450 nm (normalized)
SSRPAPPTYQTASYPHNLPSKRKMK(Biotin) [DenP28-A]	0.811
SSRPDLGTFPNRTLKMAAHK(Biotin) [DenP11-A]	0.454
SSRPEFPYYNDNPPNPERHTLRK(Biotin) [DenP7-A]	0.356
SSRPELDHDSRHYMNGLQRKVTK(Biotin) [DenP15-A]	0.460
SSRPFDGIGLGTATRHQNRK(Biotin) [DenP12-A]	0.475
SSRPGPQHVLMQDTHQGYAFDNK(Biotin) [DenP16-A]	0.309
SSRPHDPNHLTHQARTIYRNANHTK(Biotin) [DenP23-A]	0.850
SSRPIYPNESMSTSNVRGPYHPK(Biotin) [DenP22-A]	0.354
SSRPNGNNHTDIPNRSSYTGGSFAK(Biotin) [DenP1-A]	0.154
SSRPQAAQVHMMQHSRPTTK(Biotin) [DenP13-A]	0.699

test system: pellicle-coated HAP disks (tooth pellicle); test: Phage ELISA on pellicle-coated HAP disks; format: binding, human; settings: over 10^10 pfu phage, TBST-0.5% washes, no-phage control 0.218
Description: A total of 20 selected phage candidates (Example 1) were used in a phage ELISA experiment. Purified phage lysates were used for binding to pellicle-coated HAP disks using an anti-M13 phage antibody conjugated to horseradish-peroxidase, followed by the addition of chromogenic agent TMB (3,3′,5,5′-tetramethylbenzidine), obtained from Pierce Biotechnology (Item #34021; Rockford, Ill.). The plates were read at A450 nm.
For each phage candidate to be tested, the pellicle-coated HAP disks (3 mm diameter) was incubated for 1 h at room temperature with 200 μL of blocking buffer, consisting of 2% non-fat dry milk (Schleicher & Schuell, Inc.) in TBS. […] The tube was rinsed 6 times with wash buffer consisting of TBST-0.05%. The wells were filled with 200 μL of TBST-0.5% containing 1 mg/mL BSA (bovine serum albumin) and then 10 μL (over 10^10 pfu) of purified phage stock was added. The samples were incubated at room temperature for 60 min with slow shaking. The non-binding phage were removed by washing 6 times with TBST-0.5%. Then, 100 μL of horseradish peroxidase/anti-M13 antibody conjugate (Amersham USA, Piscataway, N.J.), diluted 1:500 in the blocking buffer, was added and incubated for 1 hour at room temperature. The conjugate solution was removed and was washed 6 times with TBST-0.5%.

Substance	O.D. at 450 nm
AHPESLGIKYALDGNSDPHA (Tooth-binding peptide) [Pell 1]	0.739
ASVSNYPPIHHLATSNTTVN (Tooth-binding peptide) [Pell 2]	0.75
DECMEPLNAAHCWR (Tooth-binding peptide) [Pell 3]	0.49
DECMHGSDVEFCTS (Tooth-binding peptide) [Pell 4]	0.664
DLCSMQMMNTGCHY (Tooth-binding peptide) [Pell 5]	0.83
DLCSSPSTWGSCIR (Tooth-binding peptide) [Pell 6]	0.735
DPNESNYENATTVSQPTRHL (Tooth-binding peptide) [Pell 7]	0.831
EPTHPTMRAQMHQSLRSSSP (Tooth-binding peptide) [Pell 8]	0.712
GNTDTTPPNAVMEPTVQHKW (Tooth-binding peptide) [Pell 9]	0.755
NGPDMVQSVGKHKNS (Tooth-binding peptide) [Pell 10]	0.729
NGPEVRQIPANFEKL (Tooth-binding peptide) [Pell 11]	0.607
NNTSADNPPETDSKHHLSMS (Tooth-binding peptide) [Pell 12]	0.521
NNTWPEGAGHTMPSTNIRQA (Tooth-binding peptide) [Pell 13]	0.598
NPTATPHMKDPMHSNAHSSA (Tooth-binding peptide) [Pell 14]	0.7
NPTDHIPANSTNSRVSKGNT (Tooth-binding peptide) [Pell 15]	0.567
NPTDSTHMMHARNHE (Tooth-binding peptide) [Pell 16]	0.578
QHCITERLHPPCTK (Tooth-binding peptide) [Pell 17]	0.614
TPCAPASFNPHCSR (Tooth-binding peptide) [Pell 18]	0.416
TPCATYPHFSGCRA (Tooth-binding peptide) [Pell 19]	0.731
WCTDFCTRSTPTSTSRSTTS (Tooth-binding peptide) [Pell 20]	0.715

test system: pellicle coated bovine enamel; test: Phage ELISA on pellicle-coated bovine enamel (30 min in vivo pellicle), Example 13; format: binding, human; settings: 10^11 pfu, 30 min at 37° C., normalized to an internal control
Description: A total of 29 selected phage candidates from Table 14 were used in phage ELISA Experiment to determine binding affinity and coverage of each phage on pellicle substrates. Purified phage lysates were used for binding to pellicle coated bovine enamel using an anti-M13 phage antibody conjugated to horseradish-peroxidase, followed by the addition of chromogenic agent TMB, obtained from Pierce Biotechnology (Rockford, Ill.). The plates were read at A450nm.
The wells were filled with 1 mL of 10^11 pfu purified phage stock which was prepared by diluting in blocking buffer. […] The non-binding phage was removed by washing 5 times with PBST. […] The conjugate solution was removed and was washed 3 times with PBST.

Substance	O.D. at 450 nm (normalized)
ANELSTYAQTNPGSG (Synthetic oral-surface binding peptide) [DenP 25]	0.909
APPTYQTASYPHNLPSKRKM (Synthetic oral-surface binding peptide) [DenP 28]	1.203
AVVPADLNDHANHLS (Synthetic oral-surface binding peptide) [DenP 10]	1.619
DHNNRQHAVEVRENKTHTAR (Synthetic oral-surface binding peptide) [DenP 21]	0.728
DLGTFPNRTLKMAAH (Synthetic oral-surface binding peptide) [DenP 11]	1.663
DTIHPNKMKSPSSPL (Synthetic oral-surface binding peptide) [DenP 26]	1.039
EFPYYNDNPPNPERHTLR (Synthetic oral-surface binding peptide) [DenP 07]	1.500
ELDHDSRHYMNGLQRKVT (Synthetic oral-surface binding peptide) [DenP 15]	1.112
FDGIGLGTATRHQNR (Synthetic oral-surface binding peptide) [DenP 12]	2.079
GMPTRYYHNTPPHLTPKF (Synthetic oral-surface binding peptide) [DenP 08]	1.182
GPQHVLMQDTHQGYAFDN (Synthetic oral-surface binding peptide) [DenP 16]	2.190
HDPNHLTHQARTIYRNANHT (Synthetic oral-surface binding peptide) [DenP 23]	1.236
HKNAIQPVNDATTLDTTM (Synthetic oral-surface binding peptide) [DenP 09]	1.364
HKNENIMQYNVNDRWHITPA (Synthetic oral-surface binding peptide) [DenP 32]	1.441
IPWWNIRAPLNAGGG [Control, reference compound]	1.000
IYPNESMSTSNVRGPYHP (Synthetic oral-surface binding peptide) [DenP 22]	1.420
KAPIANMLQPHSYQYSVA (Synthetic oral-surface binding peptide) [DenP 18]	1.143
NGNNHTDIPNRSSYTGGSFA (Synthetic oral-surface binding peptide) [DenP 01]	1.002
QAAQVHMMQHSRPTT (Synthetic oral-surface binding peptide) [DenP 13]	0.845
QVPDYLSPTHQKKAFLEIPT (Synthetic oral-surface binding peptide) [DenP 29]	0.976
SEARARTFNDHTTPMPII (Synthetic oral-surface binding peptide) [DenP 14]	2.498
SNATMYNIQSHSHHQ (Synthetic oral-surface binding peptide) [DenP 24]	0.979
TMTNHVYNSYTEKHSSTHRS (Synthetic oral-surface binding peptide) [DenP 02]	1.951
TNDLHANPFTGTYIAPDPTS (Synthetic oral-surface binding peptide) [DenP 30]	1.082
TTGSSSQADTSASMSIVPAH (Synthetic oral-surface binding peptide) [DenP 17]	0.971
TYQGVPSWPAVIDDAIRR (Synthetic oral-surface binding peptide) [DenP 19]	1.052
VEPATKNMREARSSTQMRRI (Synthetic oral-surface binding peptide) [DenP 04]	1.421
VNPNWVETQALHQPPGNT (Synthetic oral-surface binding peptide) [DenP 20]	1.298
YLLPKDQTTAPQVTPIVQHK (Synthetic oral-surface binding peptide) [DenP 05]	1.087
